From US20150258108A1 (priority 2014, published 2015)
Values joined by “and” are separate entries in the source; they are usually repeats but may differ in a detail not shown here. Identical values can stand only once. Like-named read-outs stand apart in the source and are kept apart here. Marks after values point to notes of the source that are not given here.

Tests used:
[1] = Ascending single-dose pharmacokinetics of noribogaine in healthy volunteers; conditions: for Cmax / Tmax / AUC0-216 / AUC0-∞ / t1/2: fasted healthy males, mean (SD), n = 6
[2] = tested on: human OPRK (κ-opioid receptor); assay: biochemical; assay type: binding
[3] = target: T1, human OPRM (Homo sapiens, UniProt P35372); design: expressed in transfected cells; host or cells: CHO-K1 (cell lines provided by Dr. Toll, Torrey Pines Institute); conditions: cited from earlier work
T1 sequence (P35372 whole entry): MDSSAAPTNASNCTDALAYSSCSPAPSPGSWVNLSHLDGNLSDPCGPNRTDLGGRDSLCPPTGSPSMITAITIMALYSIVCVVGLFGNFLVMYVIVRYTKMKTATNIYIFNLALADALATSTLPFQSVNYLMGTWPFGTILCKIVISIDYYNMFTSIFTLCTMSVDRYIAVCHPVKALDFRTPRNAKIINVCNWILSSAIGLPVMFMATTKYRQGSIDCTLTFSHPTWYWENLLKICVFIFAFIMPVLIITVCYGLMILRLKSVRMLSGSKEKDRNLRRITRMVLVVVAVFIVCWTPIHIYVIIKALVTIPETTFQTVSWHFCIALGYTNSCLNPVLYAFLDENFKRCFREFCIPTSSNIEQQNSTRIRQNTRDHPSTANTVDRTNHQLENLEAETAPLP

[4] = target: T2, human OPRM (μ-opioid receptor) (Homo sapiens, UniProt P35372); conditions: cited from earlier work
T2 sequence (P35372 whole entry): as above

[5] = target: T1, human OPRM; assay: biochemical; assay type: biochemical; design: expressed in transfected cells; host or cells: CHO-K1 (cell lines provided by Dr. Toll, Torrey Pines Institute)
[6] = target: OPRD: opioid receptor delta (Bos taurus, UniProt F1N083); conditions: literature (Pearl, Herrick-Davis et al. 1995); cited from earlier work
OPRD: opioid receptor delta, sequence (F1N083 1-372): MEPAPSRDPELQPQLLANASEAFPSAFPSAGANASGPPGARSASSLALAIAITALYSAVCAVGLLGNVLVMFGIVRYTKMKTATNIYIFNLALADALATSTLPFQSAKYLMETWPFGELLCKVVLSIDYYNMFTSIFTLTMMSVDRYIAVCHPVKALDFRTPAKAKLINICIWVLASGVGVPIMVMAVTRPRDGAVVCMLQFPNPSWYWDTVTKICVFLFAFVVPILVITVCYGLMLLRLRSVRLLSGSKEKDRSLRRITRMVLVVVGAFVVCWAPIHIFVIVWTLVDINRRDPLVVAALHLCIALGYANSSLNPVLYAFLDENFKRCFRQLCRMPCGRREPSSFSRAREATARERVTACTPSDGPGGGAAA

[7] = target: T2, human OPRM (μ-opioid receptor); assay: biochemical; assay type: binding; design: expressed in transfected cells; host or cells: CHO-K1 (cell lines provided by Dr. Toll, Torrey Pines Institute)
[8] = target: calf OPRM (Bos taurus, UniProt P79350); conditions: calf receptor, literature, cited from earlier work
calf OPRM, sequence (P79350 whole entry): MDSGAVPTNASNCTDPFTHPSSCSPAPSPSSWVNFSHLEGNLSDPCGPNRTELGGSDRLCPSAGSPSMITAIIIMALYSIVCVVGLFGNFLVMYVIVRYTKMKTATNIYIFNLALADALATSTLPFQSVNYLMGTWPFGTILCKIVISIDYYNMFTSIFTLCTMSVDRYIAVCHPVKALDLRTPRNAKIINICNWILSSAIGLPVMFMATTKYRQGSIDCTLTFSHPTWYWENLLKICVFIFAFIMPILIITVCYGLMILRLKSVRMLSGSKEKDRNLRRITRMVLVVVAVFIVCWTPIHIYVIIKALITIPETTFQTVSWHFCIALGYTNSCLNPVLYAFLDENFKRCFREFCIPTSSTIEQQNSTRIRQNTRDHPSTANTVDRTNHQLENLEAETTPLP

[9] = target: T3, OPRK (Homo sapiens, UniProt P41145); assay: biochemical; design: purchased PerkinElmer Life Sciences (Boston, Mass.)
T3 sequence (P41145 whole entry): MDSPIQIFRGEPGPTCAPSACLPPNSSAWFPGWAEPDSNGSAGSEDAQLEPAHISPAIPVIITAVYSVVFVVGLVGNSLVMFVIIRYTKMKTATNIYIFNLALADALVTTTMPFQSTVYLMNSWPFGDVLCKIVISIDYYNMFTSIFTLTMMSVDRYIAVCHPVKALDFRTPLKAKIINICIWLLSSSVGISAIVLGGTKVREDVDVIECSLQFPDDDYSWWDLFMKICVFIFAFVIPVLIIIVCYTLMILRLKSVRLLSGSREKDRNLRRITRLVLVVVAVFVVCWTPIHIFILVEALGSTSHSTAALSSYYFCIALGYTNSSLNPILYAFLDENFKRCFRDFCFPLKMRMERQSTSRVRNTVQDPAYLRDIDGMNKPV

[10] = target: calf OPRK (Bos taurus, UniProt Q2KIP6); conditions: calf receptor, literature; cited from earlier work
calf OPRK, sequence (Q2KIP6 whole entry): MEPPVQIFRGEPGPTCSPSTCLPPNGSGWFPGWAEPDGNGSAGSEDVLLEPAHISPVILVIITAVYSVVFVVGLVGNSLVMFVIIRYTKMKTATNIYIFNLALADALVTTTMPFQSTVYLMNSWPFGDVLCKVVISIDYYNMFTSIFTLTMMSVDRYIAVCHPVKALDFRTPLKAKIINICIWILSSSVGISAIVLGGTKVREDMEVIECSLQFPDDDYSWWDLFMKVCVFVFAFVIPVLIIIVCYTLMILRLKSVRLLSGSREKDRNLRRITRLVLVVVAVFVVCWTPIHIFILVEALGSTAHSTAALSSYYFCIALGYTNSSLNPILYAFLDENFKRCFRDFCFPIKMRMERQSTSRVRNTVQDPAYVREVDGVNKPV

[11] = target: T4, human OPRK (κ-opioid receptor) (Homo sapiens, UniProt P41145); assay: biochemical; assay type: binding; conditions: for Ki: read-out: Ki
T4 construct: purchased PerkinElmer Life Sciences (Boston, Mass.)
T4 sequence (P41145 whole entry): as the sequence (P41145 whole entry) above

[12] = target: T3, OPRK; assay: cell-based; design: host or cells: CHO-K1; conditions: OPRK, inhibitory component; pKi-pKe
[13] = target: T1, human OPRM; assay: cell-based; assay type: cell-based; design: host or cells: CHO-K1
[14] = 30 mg noribogaine single oral dose
[15] = 30 mg noribogaine single oral dose, plasma
[16] = 60 mg noribogaine single oral dose
[17] = 60 mg noribogaine single oral dose, plasma
[18] = OPRK, [3H]-U69,593 binding, This work

CC[C@H]1C[C@@H]2C[C@H]3c4[nH]c5ccc(OC6OC(C(=O)O)C(O)C(O)C6O)cc5c4CCN(C2)[C@@H]13 (stereo partly shown) [Noribogaine glucuronide]
Cmax [1, 14]: 1.8 (0.6) ng/ml
Tmax [1, 14]: 3.0 (0.6) hr
AUC0-216 [1, 15]: 25.7 (9.1) ng · hr/ml
AUC0-∞ [1, 15]: 25.8 (9.3) ng · hr/ml
t1/2 [1, 15]: 20.6 (4.9) hr
Cmax [1, 16]: 4.1 (1.2) ng/ml
Tmax [1, 16]: 3.8 (1.2) hr
AUC0-216 [1, 17]: 65.0 (21.5) ng · hr/ml
AUC0-∞ [1, 17]: 67.1 (21.9) ng · hr/ml
t1/2 [1, 17]: 23.1 (3.0) hr
time of peak concentrations after oral noribogaine dosing ([1]; across dose groups, healthy volunteers): 3 to 4 h
Mean half-life ([1]; across dose groups, healthy volunteers, plasma): 21 to 23 h
proportion of noribogaine glucuronide Cmax and AUC relative to noribogaine ([1]; both dose groups (30 mg, 60 mg)): 3-4%
time by which detected in all subjects ([1]; plasma, 30 mg and 60 mg noribogaine dose groups): ≤ 0.75 h

NC(N)=Nc1ccc2c3c([nH]c2c1)[C@@H]1Oc2c(O)ccc4c2[C@@]12CCN(CC1CC1)[C@H](C4)[C@]2(O)C3 [6′GNTI]
Specificity ΔpKi ([2]; ΔpKi = pKi(OPRK)-pKi(OPRM)): 1.84
EC50 ([3]; OPRM, activation, literature): > 1000 nM
Efficacy ([3]; OPRM, activation, literature): 0~ %
Ki [4]: 82 nM
pKi [4]: 7.1

C[C@@H](NC(=O)[C@@H](N)Cc1ccc(O)cc1)C(=O)NCC(=O)N(C)[C@@H](Cc1ccccc1)C(=O)NCCO [DAMGO, [D-Ala2, NMe-Phe4, Gly-ol5]-enkephalin]
Specificity ΔpKi ([2]; ΔpKi = pKi(OPRK)-pKi(OPRM)): <−3

C=C1CC[C@@]2(O)[C@H]3Cc4ccc(O)c5c4[C@@]2(CCN3CC2CC2)[C@H]1O5 [Nalmefene, reference compound]
Specificity ΔpKi ([2]; ΔpKi = pKi(OPRK)-pKi(OPRM)): 1.1

CC[C@H]1CC2C[C@H]3c4[nH]c5ccc(OC)cc5c4CCN(C2)C13 [Ibogaine, reference compound]
stimulation of the OPRM G-protein pathway [5]: failed to stimulate
Emax ([5]; read-out: Efficacy (Emax)): -2.9%
Ki at OPRD [6]: N.Q.)
Ki [7]: 6920 ± 830 nM
Ki [8]: 11 µM
pKi [8]: 5.0*

COCC[C@H]1CC2CN3CCc4c([nH]c5ccccc45)[C@](C(=O)OC)(C2)[C@H]13 [18-MC, 18-methoxycoronaridine]
Efficacy (Emax) [9]: <5%
pEC50 [9]: 4.8
pEC50, (Ke): pKe [9]: 5.3
stimulation of [35S]GTPγS binding to OPRK [9]: failed to stimulate
EC50 ([9]; read-out: EC50): ~16 µM
Efficacy (Emax) [5]: <5%
stimulation of the OPRM G-protein pathway [5]: failed to stimulate
Ki [10]: 5.1 µM
pKi [10]: 5.3*
pKi [7]: 5.6*
Ki ([7]; read-out: Ki): 2260 nM and 2360 nM
affinity at human OPRK versus OPRM ([2]; this work): equi-affine
pKi [11, 18]: 5.7*
Ki [11, 18]: 1800 nM
Ki ([11]; human OPRK, [3H]-U69,593): 1840 ± 120 nM
Ki ([8]; read-out: Ki): 1.1 µM
pKi [8]: 6.0*
reported selectivity at OPRM [4]: 5 ×

Oc1ccc2c3c1O[C@H]1c4[nH]c5c(c4C[C@@]4(O)[C@@H](C2)N(CC2CC2)CC[C@]314)C[C@@]1(O)[C@H]2Cc3ccc(O)c4c3[C@@]1(CCN2CC1CC1)[C@H]5O4 [NorBNI, nor-binaltorphimine, reference compound]
e-coupling [12]: 0.27
Specificity ΔpKi ([2]; ΔpKi = pKi(OPRK)-pKi(OPRM)): 2.0

[Met]-Enkephalin [reference compound]
e-coupling [5]: 1.8
Specificity ΔpKi [2]: <−3
Efficacy [3]: ~95%
Efficacy [13]: 100%
e-coupling [13]: 1.94
